What was measured:
Conditions in all cases: Compound concentration 1000.0 nM
[1] = target: MAP/microtubule affinity-regulating kinase 3 (Homo sapiens) (UniProt P27448)
[2] = target: T1, Cytoplasmic tyrosine-protein kinase BMX (Homo sapiens) (UniProt P51813)
T1 sequence (whole entry): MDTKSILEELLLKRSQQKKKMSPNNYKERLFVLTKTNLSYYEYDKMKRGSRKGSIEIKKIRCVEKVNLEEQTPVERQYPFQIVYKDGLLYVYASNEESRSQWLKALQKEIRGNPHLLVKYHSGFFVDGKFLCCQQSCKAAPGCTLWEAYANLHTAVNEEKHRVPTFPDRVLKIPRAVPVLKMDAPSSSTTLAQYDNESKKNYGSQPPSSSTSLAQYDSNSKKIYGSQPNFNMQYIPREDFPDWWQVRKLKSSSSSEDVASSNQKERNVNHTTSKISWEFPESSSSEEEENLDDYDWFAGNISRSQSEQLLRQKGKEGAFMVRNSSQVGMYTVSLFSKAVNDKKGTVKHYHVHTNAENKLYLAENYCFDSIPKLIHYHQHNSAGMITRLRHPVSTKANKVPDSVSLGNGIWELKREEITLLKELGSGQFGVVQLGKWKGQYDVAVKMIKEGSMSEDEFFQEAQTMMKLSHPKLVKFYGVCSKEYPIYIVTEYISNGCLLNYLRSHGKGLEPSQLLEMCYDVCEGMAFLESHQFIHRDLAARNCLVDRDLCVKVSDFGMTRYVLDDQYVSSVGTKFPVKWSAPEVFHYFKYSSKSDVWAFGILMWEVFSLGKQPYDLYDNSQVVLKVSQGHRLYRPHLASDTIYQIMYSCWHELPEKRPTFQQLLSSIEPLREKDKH

[3] = target: T2, Aurora kinase A (Homo sapiens) (UniProt O14965)
T2 sequence (whole entry): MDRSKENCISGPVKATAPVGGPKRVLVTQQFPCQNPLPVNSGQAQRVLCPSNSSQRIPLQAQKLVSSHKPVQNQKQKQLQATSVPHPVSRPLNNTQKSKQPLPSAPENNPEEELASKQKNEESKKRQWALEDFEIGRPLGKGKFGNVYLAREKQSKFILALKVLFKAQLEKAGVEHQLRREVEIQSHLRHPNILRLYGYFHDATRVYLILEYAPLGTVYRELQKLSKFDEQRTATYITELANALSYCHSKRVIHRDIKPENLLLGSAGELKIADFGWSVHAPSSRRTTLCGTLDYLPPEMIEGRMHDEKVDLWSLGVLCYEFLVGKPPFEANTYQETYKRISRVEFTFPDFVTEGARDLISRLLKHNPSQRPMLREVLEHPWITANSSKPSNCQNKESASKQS

[4] = target: Serine/threonine-protein kinase WNK2 (Homo sapiens) (UniProt Q9Y3S1)
[5] = target: Ribosomal protein S6 kinase alpha-2 (Homo sapiens, UniProt Q15349)
[6] = target: T3, Activin receptor type-1 (Homo sapiens) (UniProt Q04771)
T3 sequence (whole entry): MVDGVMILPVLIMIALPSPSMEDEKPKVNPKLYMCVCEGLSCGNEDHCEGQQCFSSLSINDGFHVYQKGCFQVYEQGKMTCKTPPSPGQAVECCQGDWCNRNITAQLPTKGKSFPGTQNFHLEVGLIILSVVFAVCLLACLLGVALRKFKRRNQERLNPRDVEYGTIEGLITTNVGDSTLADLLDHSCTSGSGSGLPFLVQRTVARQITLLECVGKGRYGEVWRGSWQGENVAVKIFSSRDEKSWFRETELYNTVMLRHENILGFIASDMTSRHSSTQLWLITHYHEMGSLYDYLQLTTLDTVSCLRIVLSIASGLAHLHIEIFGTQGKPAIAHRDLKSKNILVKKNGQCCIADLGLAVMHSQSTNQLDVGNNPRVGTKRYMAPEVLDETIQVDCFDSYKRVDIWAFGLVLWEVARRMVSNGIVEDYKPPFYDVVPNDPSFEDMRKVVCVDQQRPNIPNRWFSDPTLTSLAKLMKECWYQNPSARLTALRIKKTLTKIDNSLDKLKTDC

[7] = target: Dual specificity testis-specific protein kinase 1 (Homo sapiens) (UniProt Q15569)
[8] = system: Receptor-type tyrosine-protein kinase FLT3 (Homo sapiens), P36888 [D835Y]
[9] = system: Mast/stem cell growth factor receptor Kit (Homo sapiens), P10721 [A829P]
[10] = target: Serine/threonine-protein kinase 32C (Homo sapiens) (UniProt Q86UX6)
[11] = target: Mast/stem cell growth factor receptor Kit (Homo sapiens) (UniProt P10721)
[12] = target: T4, Inhibitor of nuclear factor kappa-B kinase subunit beta (Homo sapiens) (UniProt O14920)
T4 sequence (whole entry): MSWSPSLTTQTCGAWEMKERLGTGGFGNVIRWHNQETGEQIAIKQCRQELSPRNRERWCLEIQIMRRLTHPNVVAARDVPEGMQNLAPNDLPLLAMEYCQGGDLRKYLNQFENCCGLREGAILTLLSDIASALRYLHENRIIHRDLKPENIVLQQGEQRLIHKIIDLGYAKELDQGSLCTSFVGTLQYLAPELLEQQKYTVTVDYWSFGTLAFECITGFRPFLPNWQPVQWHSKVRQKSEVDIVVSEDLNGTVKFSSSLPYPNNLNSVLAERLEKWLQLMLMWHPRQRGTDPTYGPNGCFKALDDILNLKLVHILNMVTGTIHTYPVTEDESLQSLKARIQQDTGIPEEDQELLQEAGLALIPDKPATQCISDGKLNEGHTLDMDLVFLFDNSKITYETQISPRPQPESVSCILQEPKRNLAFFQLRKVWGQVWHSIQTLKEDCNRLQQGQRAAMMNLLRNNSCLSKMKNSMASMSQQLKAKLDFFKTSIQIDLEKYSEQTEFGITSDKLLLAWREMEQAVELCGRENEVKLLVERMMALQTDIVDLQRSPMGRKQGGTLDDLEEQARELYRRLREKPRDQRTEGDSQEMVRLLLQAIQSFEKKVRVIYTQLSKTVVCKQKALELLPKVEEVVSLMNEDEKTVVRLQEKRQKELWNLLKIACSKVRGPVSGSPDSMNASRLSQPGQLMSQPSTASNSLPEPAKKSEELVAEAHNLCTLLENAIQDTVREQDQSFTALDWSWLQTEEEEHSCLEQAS

[13] = target: Casein kinase II subunit alpha' (Homo sapiens) (UniProt P19784)
[14] = target: Mitogen-activated protein kinase 3 (Homo sapiens) (UniProt P27361)

Chain of Serine/threonine-protein kinase WNK2 (Homo sapiens) (Q9Y3S1 whole entry): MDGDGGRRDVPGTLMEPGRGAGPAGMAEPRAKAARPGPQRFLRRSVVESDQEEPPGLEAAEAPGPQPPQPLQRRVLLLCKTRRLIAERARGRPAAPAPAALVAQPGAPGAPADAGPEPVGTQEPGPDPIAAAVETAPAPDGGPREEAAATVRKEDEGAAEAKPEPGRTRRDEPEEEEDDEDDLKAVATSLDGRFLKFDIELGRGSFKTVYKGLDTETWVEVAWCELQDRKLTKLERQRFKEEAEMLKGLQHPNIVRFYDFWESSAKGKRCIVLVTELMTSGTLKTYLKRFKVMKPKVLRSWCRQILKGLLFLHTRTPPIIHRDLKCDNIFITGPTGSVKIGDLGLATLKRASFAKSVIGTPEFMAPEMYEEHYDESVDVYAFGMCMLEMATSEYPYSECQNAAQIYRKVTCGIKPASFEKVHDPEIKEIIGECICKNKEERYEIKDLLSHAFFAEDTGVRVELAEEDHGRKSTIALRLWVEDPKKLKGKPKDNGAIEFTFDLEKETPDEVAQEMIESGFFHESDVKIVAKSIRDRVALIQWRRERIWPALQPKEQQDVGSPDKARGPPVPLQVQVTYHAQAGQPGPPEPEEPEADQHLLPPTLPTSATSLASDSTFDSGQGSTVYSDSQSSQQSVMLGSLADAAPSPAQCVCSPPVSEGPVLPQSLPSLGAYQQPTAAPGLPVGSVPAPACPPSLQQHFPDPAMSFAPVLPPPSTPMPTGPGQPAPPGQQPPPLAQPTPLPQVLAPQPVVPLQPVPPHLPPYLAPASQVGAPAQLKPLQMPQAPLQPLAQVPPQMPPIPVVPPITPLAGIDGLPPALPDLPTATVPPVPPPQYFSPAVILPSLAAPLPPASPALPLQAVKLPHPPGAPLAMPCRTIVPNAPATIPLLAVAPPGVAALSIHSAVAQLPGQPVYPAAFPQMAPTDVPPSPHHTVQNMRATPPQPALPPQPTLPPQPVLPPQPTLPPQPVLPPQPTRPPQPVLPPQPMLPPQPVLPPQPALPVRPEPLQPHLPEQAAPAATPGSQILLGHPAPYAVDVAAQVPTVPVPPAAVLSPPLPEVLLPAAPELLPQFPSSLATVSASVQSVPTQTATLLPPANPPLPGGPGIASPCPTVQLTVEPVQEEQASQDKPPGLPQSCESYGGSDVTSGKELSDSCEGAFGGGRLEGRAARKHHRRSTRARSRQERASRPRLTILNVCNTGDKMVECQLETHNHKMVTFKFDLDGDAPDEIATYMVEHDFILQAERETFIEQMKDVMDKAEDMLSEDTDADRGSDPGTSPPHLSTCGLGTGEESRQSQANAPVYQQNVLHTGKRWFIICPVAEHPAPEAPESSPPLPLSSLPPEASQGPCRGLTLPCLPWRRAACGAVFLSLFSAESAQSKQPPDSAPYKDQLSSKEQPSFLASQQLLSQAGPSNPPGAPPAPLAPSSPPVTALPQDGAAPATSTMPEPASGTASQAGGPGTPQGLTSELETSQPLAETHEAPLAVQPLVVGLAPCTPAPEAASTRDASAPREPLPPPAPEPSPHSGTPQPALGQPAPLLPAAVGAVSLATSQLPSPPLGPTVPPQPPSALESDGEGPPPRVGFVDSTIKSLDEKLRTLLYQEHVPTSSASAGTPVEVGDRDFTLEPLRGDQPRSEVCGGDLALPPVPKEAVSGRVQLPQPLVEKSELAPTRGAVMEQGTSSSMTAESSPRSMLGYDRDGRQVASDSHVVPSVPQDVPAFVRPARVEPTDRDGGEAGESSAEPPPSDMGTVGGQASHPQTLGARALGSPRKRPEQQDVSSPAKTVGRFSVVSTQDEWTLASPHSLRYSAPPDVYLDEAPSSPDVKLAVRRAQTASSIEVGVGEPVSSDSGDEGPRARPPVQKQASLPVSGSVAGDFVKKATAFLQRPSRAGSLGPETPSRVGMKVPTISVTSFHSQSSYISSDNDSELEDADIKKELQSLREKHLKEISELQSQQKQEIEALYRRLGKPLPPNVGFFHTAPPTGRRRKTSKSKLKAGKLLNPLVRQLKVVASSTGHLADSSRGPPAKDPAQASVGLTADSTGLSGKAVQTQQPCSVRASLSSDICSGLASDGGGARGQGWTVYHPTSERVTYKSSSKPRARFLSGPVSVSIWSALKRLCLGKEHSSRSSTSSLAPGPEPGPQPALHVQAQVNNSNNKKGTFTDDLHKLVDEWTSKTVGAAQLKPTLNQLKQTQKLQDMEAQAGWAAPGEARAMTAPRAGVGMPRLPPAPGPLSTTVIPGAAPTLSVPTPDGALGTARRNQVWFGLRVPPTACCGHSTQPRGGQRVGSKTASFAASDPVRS
Chain of MAP/microtubule affinity-regulating kinase 3 (Homo sapiens) (P27448 whole entry, looked up): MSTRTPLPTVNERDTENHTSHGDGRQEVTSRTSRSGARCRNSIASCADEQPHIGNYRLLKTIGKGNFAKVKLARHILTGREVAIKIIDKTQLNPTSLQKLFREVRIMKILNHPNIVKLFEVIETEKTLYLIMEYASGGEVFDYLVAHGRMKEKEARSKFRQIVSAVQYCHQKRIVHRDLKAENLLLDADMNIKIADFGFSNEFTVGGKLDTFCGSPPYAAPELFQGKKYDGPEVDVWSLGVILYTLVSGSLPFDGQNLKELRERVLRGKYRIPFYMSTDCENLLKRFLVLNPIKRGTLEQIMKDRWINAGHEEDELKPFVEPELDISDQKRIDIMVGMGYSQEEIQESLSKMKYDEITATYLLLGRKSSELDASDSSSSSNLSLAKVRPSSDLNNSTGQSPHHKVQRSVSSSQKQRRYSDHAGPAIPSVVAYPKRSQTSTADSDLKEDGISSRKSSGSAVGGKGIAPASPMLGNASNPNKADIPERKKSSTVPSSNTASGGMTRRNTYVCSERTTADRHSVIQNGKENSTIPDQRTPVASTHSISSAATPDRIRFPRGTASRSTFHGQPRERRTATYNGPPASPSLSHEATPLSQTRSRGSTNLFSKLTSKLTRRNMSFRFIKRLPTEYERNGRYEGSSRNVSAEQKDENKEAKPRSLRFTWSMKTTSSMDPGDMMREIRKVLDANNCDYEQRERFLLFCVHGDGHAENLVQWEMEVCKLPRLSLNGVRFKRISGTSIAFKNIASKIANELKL
Chain of Mast/stem cell growth factor receptor Kit (Homo sapiens), P10721 [A829P] (P10721 whole entry A829P): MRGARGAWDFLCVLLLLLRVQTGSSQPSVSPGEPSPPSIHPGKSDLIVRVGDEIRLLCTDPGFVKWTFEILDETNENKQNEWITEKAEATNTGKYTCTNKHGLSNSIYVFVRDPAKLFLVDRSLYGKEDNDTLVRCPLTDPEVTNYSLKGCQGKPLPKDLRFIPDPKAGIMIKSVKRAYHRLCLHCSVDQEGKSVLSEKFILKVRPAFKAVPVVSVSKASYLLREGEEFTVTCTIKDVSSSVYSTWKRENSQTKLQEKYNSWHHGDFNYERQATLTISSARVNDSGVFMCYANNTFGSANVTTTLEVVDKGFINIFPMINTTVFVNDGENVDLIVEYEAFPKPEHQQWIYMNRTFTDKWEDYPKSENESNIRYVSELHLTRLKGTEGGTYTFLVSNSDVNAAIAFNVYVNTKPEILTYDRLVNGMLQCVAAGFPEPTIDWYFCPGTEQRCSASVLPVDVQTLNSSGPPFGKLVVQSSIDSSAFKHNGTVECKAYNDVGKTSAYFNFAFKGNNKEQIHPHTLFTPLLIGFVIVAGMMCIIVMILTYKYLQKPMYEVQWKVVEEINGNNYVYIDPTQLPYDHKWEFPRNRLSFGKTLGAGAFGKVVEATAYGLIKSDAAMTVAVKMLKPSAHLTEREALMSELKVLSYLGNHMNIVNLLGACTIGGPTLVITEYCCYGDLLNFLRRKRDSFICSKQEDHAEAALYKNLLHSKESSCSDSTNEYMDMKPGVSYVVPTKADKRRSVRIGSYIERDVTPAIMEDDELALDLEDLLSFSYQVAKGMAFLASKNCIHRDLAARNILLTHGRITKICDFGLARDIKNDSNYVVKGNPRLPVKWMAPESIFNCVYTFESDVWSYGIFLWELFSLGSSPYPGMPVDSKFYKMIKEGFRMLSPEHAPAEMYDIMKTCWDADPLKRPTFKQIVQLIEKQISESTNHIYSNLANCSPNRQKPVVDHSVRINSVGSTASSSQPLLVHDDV
Chain of Ribosomal protein S6 kinase alpha-2 (Q15349 whole entry): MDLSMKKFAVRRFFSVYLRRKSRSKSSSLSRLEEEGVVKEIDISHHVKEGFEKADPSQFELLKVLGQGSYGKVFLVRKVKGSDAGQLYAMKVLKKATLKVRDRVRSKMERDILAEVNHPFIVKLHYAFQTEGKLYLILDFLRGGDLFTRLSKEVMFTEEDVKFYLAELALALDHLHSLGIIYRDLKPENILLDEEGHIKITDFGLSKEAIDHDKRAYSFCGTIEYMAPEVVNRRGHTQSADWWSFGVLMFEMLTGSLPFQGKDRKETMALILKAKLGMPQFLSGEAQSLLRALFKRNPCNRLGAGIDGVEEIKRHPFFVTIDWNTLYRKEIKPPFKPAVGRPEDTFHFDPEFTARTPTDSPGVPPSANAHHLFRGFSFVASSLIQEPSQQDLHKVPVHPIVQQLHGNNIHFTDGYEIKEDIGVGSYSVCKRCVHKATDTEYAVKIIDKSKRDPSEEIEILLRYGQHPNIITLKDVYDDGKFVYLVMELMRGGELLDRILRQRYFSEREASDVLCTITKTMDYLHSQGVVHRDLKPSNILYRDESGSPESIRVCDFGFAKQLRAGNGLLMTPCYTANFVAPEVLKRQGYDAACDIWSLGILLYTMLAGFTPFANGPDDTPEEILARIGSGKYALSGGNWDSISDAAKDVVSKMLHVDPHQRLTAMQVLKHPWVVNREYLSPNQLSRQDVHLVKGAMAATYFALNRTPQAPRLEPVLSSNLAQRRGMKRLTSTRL
Chain of Mast/stem cell growth factor receptor Kit (Homo sapiens) (P10721 whole entry): as the sequence (P10721 whole entry A829P) above, with P829A counted along it

| Structure (SMILES) | residual activity [1] | residual activity [2] | residual activity [3] | residual activity [4] | residual activity [5] | residual activity [6] | residual activity [7] | residual activity [8] | residual activity [9] | residual activity [10] | residual activity [11] | residual activity [12] | residual activity [13] | residual activity [14] |
| --- | --- | --- | --- | --- | --- | --- | --- | --- | --- | --- | --- | --- | --- | --- |
| CCc1ccccc1C(=O)Nc1n[nH]c2c(C)c(F)c(C3C(C#N)=C(C)N(C)C(C)=C3C#N)cc12 [BAY-3827] | 30% | 96% | 51% | 100% | 100% | 100% | 96% | 2.5% | 100% | 100% | 84% | 94% | 100% | 95% |
| CC1=C(C#N)C(c2ccc3c(c2)c(NC(=O)c2ccccc2C)nn3C)C(C#N)=C(C)N1 [BAY-974] | 92% | 85% | 61% | 75% | 94% | 99% | 96% | 82% | 64% | 79% | 100% | 95% | 100% | 94% |

From ChEMBL document CHEMBL4507319 (2021)
